pKi: −log10 of the molar value.

The target in the assay is T1, Dihydrofolate reductase (Bos taurus, UniProt P00376).
T1 sequence (P00376 whole entry): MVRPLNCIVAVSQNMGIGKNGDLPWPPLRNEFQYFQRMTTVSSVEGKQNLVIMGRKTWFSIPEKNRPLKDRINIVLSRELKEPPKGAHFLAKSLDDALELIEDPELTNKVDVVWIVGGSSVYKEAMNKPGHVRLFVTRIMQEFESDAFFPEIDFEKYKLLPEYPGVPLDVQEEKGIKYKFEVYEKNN
Nature of the assay: Inhibition of dihydrofolate reductase from bovine liver.
As to `Nc1ncc(Cc2cccc(C(F)(F)F)c2)c(N)n1`, the pKi was 5.53. In the case of `Nc1ccc(Cc2cnc(N)nc2N)cc1` it was 4.57. In turn, `Nc1ncc(Cc2cc(CO)cc(CO)c2)c(N)n1` gave a pKi of 4.30. This pKi lies 0.27 log units lower than the previous one. The same measure for `Nc1ncc(Cc2cccc(CO)c2)c(N)n1`: 5.20. The same measure for `CS(=O)(=O)Oc1cccc(Cc2cnc(N)nc2N)c1`: 5.58. `Nc1ncc(Cc2ccc(OC(F)(F)F)cc2)c(N)n1` gave a pKi of 5.42. The same measure for `CCCCOCc1cccc(Cc2cnc(N)nc2N)c1`: 5.86; for `Nc1ncc(Cc2cccc(I)c2)c(N)n1`: 6.15; for `COCc1cccc(Cc2cnc(N)nc2N)c1`: 5.49. The compound `Cc1ccc(Cc2cnc(N)nc2N)cc1` gave a pKi of 4.80. The same measure for `CC(=O)Nc1ccc(Cc2cnc(N)nc2N)cc1[N+](=O)[O-]`: 5.16; for `CCCCOc1ccc(Cc2cnc(N)nc2N)cc1`: 5.74; for `Nc1ncc(Cc2cccc(O)c2)c(N)n1` [3-(2,4-Diamino-pyrimidin-5-ylmethyl)-phenol]: 4.88.

For the compound `COCCOc1c(OC)cc(Cc2cnc(N)nc2N)cc1OC` [5-[3,5-Dimethoxy-4-(2-methoxy-ethoxy)-benzyl]-pyrimidine-2,4-diamine], the pKi is 4.88. The same measure for `COc1ccc(Cc2cnc(N)nc2N)cc1OC` [Diaveridine]: 5.15.

Values taken from BindingDB's records for doi:10.1021/jm00137a012 (1981).
